Laboratory results taken from patent publication US9382517B2, “HCV full-length infectious cell culture systems and applications thereof” (priority 2012, dated 2016).
pEC50: −log10 of the molar value.

Tests used:
[1] = test system: J6 full-length virus; assay: HCV antiviral treatment of Huh7.5 cells infected with J6 full-length virus (fourth passage J6_LSGΔ33U); assay type: cell-based, hepatitis C virus (genotype 2a); conditions: for inhibition of full-length J6 culture viruses: treatment 24 and 48 hours post-infection, HCV positive cells counted 72 hours post-infection
Method: (§1) Naïve Huh7.5 cells were infected with indicated viruses, and antiviral treatments were carried out at 24 and 48 hours post-infection. The HCV positive cells were counted 72 hours post-infection as previously described. Fourth passage J6 full-length J6_LSGΔ33U virus (Table 3) was used for treatment. Treatment experiments with recombinants J6^5′UTR-NS2/JFH1, J6^Core-NS2,NS3 protease, NS4A/JFH1 and J6^Core-NS2,NS5A/JFH1 were included for comparison. (A) Treatment with protease inhibitors (boceprevir and TMC435) and the NS5A inhibitor daclatasvir (BMS-790052). (B) Treatment with NS5B inhibitors. (C) Median effective concentrations (EC50) of the used inhibitors against the indicated viruses. *, range of two experiments; experiments with the lowest EC50 shown in A or B. In A and B, values are means of triplicate determinations.
(§2) HCV antiviral treatment. HCV antivirals were purchased from Acme Bioscience (Palo Alto, Calif.) and dissolved in dimethyl sulfoxide. Huh7.5 cells grown in poly-D-lysine-coated 96-well plates (Nunc) were infected with HCV and treated with antivirals 24 and 48 hours post-infection as previously described. Single HCV core positive cells were determined by immunostaining with C7-50 (Enzo Life Sciences) 72 hours post-infection.

[2] = test system: J6/JFH1 with J6-specific NS3/NS4A protease; assay: HCV antiviral treatment of Huh7.5 cells infected with J6/JFH1 with J6-specific NS3/NS4A protease; assay type: cell-based, hepatitis C virus (genotype 2a); conditions: J6/JFH1 with J6-specific NS3/NS4A protease compared to J6^5′UTR-NS2/JFH1
Method: as §1, §2

[3] = test system: TN full-length virus; assay: HCV antiviral treatment of Huh7.5 cells infected with TN full-length virus (first passage TN_LSGF/A1226G/Q1773H); assay type: cell-based, hepatitis C virus (genotype 1a); conditions: for inhibition of TN full-length virus: DAAs 24 hours post-infection, interferon-α2b 24 and 48 hours, HCV positive cells 72 hours post-infection
Method: (§3) Naïve Huh7.5 cells were infected with first passage virus stock of TN full-length recombinant TN_LSGF/A1226G/Q1773H; the ORF sequence of this virus stock is shown in FIGS. 16 and 17. A J6/JFH1 virus stock was treated in parallel. Antivirals were administered 24 hours post infection at the indicated doses; interferon-α2b was also administered 48 hours post infection. The number of HCV positive cells per well was determined 72 hours post infection. (A) Dose response curves for treatments with lead compound protease inhibitors telaprevir (VX-950), boceprevir (SCH503034), and simeprevir (TMC435), NS5A inhibitor daclatasvir (BMS-790052), and NS5B inhibitor PSI-7977, as well as interferon-α2b. Values are means of triplicate determinations with SEM. (B) Median effective concentrations (EC50) of the used inhibitors against the indicated viruses. Values for EC50 and 95% confidence interval are shown.
(§4) HCV antiviral treatment. HCV DAAs were purchased from Acme Bioscience (Palo Alto, Calif.) and dissolved in dimethyl sulfoxide. Inerferon-α2b was purchased from Schering-Plough (Kenilworth, N.J.).
Briefly, Huh7.5 cells grown in poly-D-lysine-coated 96-well plates (Nunc) were infected with HCV and treated with DAAs 24 hours post-infection. Treatment with interferon-α2b was performed at 24 and 48 hours post-infection. Single HCV Core and NS5A positive cells were determined 72 hours post-infection by immunostaining with combination of C7-50 (Enzo Life Sciences) and 9E10 antibodies. Dose response curves were fitted and EC50 values with 95% confidence interval were calculated in GraphPad Prim 4 (Graphpad).

[4] = test system: Huh7.5 cells; assay: Cytotoxicity assay, non-cytotoxic dose range (Example 3); assay type: cell-based, human; conditions: at the doses used in this study
Method: A cytotoxicity assay was performed for PSI-7977, as we had not used this drug previously. The non-cytotoxic dose range for telaprevir, boceprevir, simeprevir, daclatasvir, and interferon-α2b was determined.

[5] = test system: J6/JFH1; assay: HCV antiviral treatment of Huh7.5 cells infected with J6/JFH1 virus stock; assay type: cell-based, hepatitis C virus (genotype 2a); conditions: stated for HCV of genotypes 1 and 2
Method: as §3, §4
Briefly, Huh7.5 cells grown in poly-D-lysine-coated 96-well plates (Nunc) were infected with HCV and treated with DAAs 24 hours post-infection. […] Single HCV Core and NS5A positive cells were determined 72 hours post-infection by immunostaining with combination of C7-50 (Enzo Life Sciences) and 9E10 antibodies. […]

[6] = test system: J6/JFH1-based recombinant with TN NS5A; assay: HCV antiviral treatment, J6/JFH1-based recombinant with TN NS5A; assay type: cell-based; conditions: Hepatitis C virus, read-out: Median effective concentration (EC50)
[7] = J6 virus compared to J6^5′UTR-NS2/JFH1

Compound	fold lower EC50 compared to J6^5′UTR-NS2/JFH1 [1, 7]	inhibition of full-length J6 culture viruses [1]	inhibition of TN full-length virus [3]	cytotoxic effects [4]	also measured
CC(C)[C@H](N)C(=O)O[C@@H]1[C@@H](CO)O[C@@H](n2ccc(N)nc2=O)[C@]1(C)O [NM283]	~6 fold	inhibited			
COc1ccc2c(O[C@@H]3C[C@H]4C(=O)N[C@]5(C(=O)NS(=O)(=O)C6CC6)C[C@H]5/C=C\CCCCN(C)C(=O)[C@@H]4C3)cc(-c3nc(C(C)C)cs3)nc2c1C [TMC435, simeprevir]		inhibited	dose-dependently inhibited	No cytotoxic effects	fold higher EC50 than that found for J6^5′UTR-NS2/JFH1 [1, 7]: 2-3 fold; fold higher EC50 than that found for J6^5′UTR-NS2/JFH1 [2]: 2-3 fold
CC(C)OC(=O)[C@H](C)N[P@](=O)(OC[C@H]1O[C@@H](n2ccc(=O)[nH]c2=O)[C@](C)(F)[C@@H]1O)Oc1ccccc1 [PSI-7977]			dose-dependently inhibited	No cytotoxic effects	inhibition of HCV of genotype 2 (J6/JFH1) [5]: efficiently inhibit
CNC(=O)c1c(-c2ccc(F)cc2)oc2cc(N(CCO)S(C)(=O)=O)c(C3CC3)cc12 [HCV-796]	~2 fold	inhibited			
C[C@@]1(F)[C@H](O)[C@@H](CO)O[C@H]1n1ccc(N)nc1=O [PSI-6130]	around 4 fold	inhibited			
CC(C)(C)NC(=O)N[C@H](C(=O)N1C[C@H]2[C@@H]([C@H]1C(=O)NC(CC1CCC1)C(=O)C(N)=O)C2(C)C)C(C)(C)C (stereo partly drawn) [boceprevir]				No cytotoxic effects	
COC(=O)N[C@H](C(=O)N1CCC[C@H]1c1nc(-c2ccc(-c3ccc(-c4c[nH]c([C@@H]5CCCN5C(=O)[C@@H](NC(=O)OC)C(C)C)n4)cc3)cc2)c[nH]1)C(C)C [daclatasvir]				No cytotoxic effects	pEC50 ([3]; Hepatitis C virus, TN full-length virus, 72 hours post-infection, read-out: Median effective concentration (EC50)): 10.49; pEC50 [6]: 10.38
CCC[C@H](NC(=O)[C@@H]1[C@H]2CCC[C@H]2CN1C(=O)[C@@H](NC(=O)[C@@H](NC(=O)c1cnccn1)C1CCCCC1)C(C)(C)C)C(=O)C(=O)NC1CC1 [telaprevir]				No cytotoxic effects	
interferon-α2b			dose-dependently inhibited	No cytotoxic effects	
